Laboratory results published in ChEMBL document CHEMBL4616639, “Simplistic perylene-related compounds as inhibitors of tick-borne encephalitis virus reproduction” (Bioorg Med Chem Lett, 2020).

Tests used:
[1] = Cytotoxicity against porcine PEK cells assessed as reduction in cell viability after 24 hrs by microscopic method; type: cell-based, Sus scrofa; conditions: pig
[2] = Cytotoxicity against porcine PEK cells assessed as reduction in cell viability after 7 days by microscopic method; type: cell-based, Sus scrofa; conditions: pig
[3] = system: Tick-borne encephalitis virus; assay: microbe, parasite or virus in culture; type: functional, organism-based; conditions: PEK
[4] = Selectivity index, ratio of CC50 for porcine PEK cells assessed as reduction in cell viability after 24 hrs by microscopic method to EC50 for TBEV Absettarov infected in porcine PEK cells assessed as plaque reduction preincubated for 1 hr followed by overlaying with 1.26% methylcellulose and measured after 6 days by gentian violet staining-based assay; type: toxicity; conditions: pig, read-out: Ratio CC50/EC50

| SMILES | CC50 at 24 h [1] | CC50 at 168 h [2] | EC50 [3] | selectivity ratio at 24 h [4] |
| --- | --- | --- | --- | --- |
| O=c1[nH]c(=O)n([C@@H]2O[C@H](CO)[C@@H](O)[C@@H]2O)cc1C#Cc1ccc2c3cccc4cccc(c5cccc1c52)c43 | > 50 µM | > 50 µM |  |  |
| OC[C@H]1O[C@@H](n2cnc3c(NCc4c5ccccc5cc5ccccc45)ncnc32)[C@H](O)[C@@H]1O | > 50 µM | > 50 µM | 22 µM |  |
| O=c1[nH]c(=O)n([C@@H]2O[C@H](CO)[C@@H](O)[C@H]2O)cc1C#Cc1ccc2c3cccc4cccc(c5cccc1c52)c43 | > 100 µM | > 100 µM | 0.0077 µM |  |
| O=c1[nH]cc(C#Cc2ccc3c4cccc5cccc(c6cccc2c63)c54)c(=O)[nH]1 | > 100 µM | 37 µM | 0.008 µM |  |
| CO[C@@H]1[C@H](O)[C@@H](CO)O[C@H]1n1cc(C#Cc2ccc3c4cccc5cccc(c6cccc2c63)c54)c(=O)[nH]c1=O | > 50 µM | 38 µM | 0.006 µM |  |
| CN(C)c1ccc(C#Cc2ccc3c4cccc5cccc(c6cccc2c63)c54)cc1 | > 100 µM | > 100 µM | 0.025 µM |  |
| O=C(O)c1ccc(-c2ccc3c4cccc5cccc(c6cccc2c63)c54)s1 | > 70 µM | 26 µM | 0.0016 µM | > 30000 |
| CC(=O)Nc1ccc(C#Cc2ccc3c4cccc5cccc(c6cccc2c63)c54)cc1 | > 100 µM | > 100 µM | 0.089 µM |  |
| CCCCNC(=O)c1ccc(-c2ccc3c4cccc5cccc(c6cccc2c63)c54)s1 | > 100 µM | > 100 µM | 0.0039 µM |  |
| O=C(NCCCCO)c1ccc(-c2ccc3c4cccc5cccc(c6cccc2c63)c54)s1 | > 70 µM | > 70 µM | 0.009 µM |  |
| O=C(O)c1ccc2c3cccc4cccc(c5cccc1c52)c43 | > 50 µM | 37 µM | 0.037 µM |  |
| O=C(c1ccc(-c2ccc3c4cccc5cccc(c6cccc2c63)c54)s1)N(CCO)CCO | > 70 µM | > 70 µM | 0.015 µM |  |
| Cc1cc(O)c2c3c4c(cc(O)c13)C(C)(C)C(=O)c1c(O)cc(O)c(c1-4)C2=O [HELIOMYCIN] | 3.7 µM | 3.7 µM | 0.15 µM |  |
